Measured values taken from patent US10543262B2, “Combination therapy utilizing P2X7 peptides” (BIOSCEPTRE (AUST) PTY LTD, priority 2011, dated 2020).

Test system: nfP2X7 receptors
Assay: ELISA of specific anti-nfP2X7 antibody response in patient serum after immunisation with peptide-KLH conjugate
Type: in vivo, human
Experimental: Peptide immunogen was synthesised to high purity in the form GHNYTTRNILPGLNITC (SEQ ID NO:2) to which was added the cross-linker maleimidocaproyl-N-hydroxysuccinimide (MCS) at the C-terminal Cys residue. The peptide was cross-linked to a carrier protein Keyhole Limpet Hemocyanin (KLH) such that the average percentage of peptide to total peptide-protein conjugate was 40%. This peptide or the alternative peptide […] (SEQ ID NO:5) similarly conjugated to KLH constituted selective epitope targets, primary and compound respectively that enabled differentiation of the nfP2X7 receptors to be made from native receptors.
The peptide-protein conjugate was added at a concentration of 2.5 mg/mL conjugate (1 mg/mL peptide) dropwise with thorough mixing in the adjuvant in an amount equal to 0.5 mL conjugate to 0.75 mL adjuvant containing 0.5 mg of target peptide epitope.
The immunisation schedule consisted of a primary inoculation (two injections subcutaneously and two injections intramuscularly) of a total of 0.5 mg peptide followed a month later with a boost applied the same way with 0.3 mg peptide. Serum samples were collected immediately prior to and a week post injections. Inoculation is ideally administered no less than a month after the final infusion of anti-nfP2X7 antibody to ensure no sequestration of the immunogen by residual specific anti-nfP2X7 antibody infusate.
Specific anti-nfP2X7 antibody responses were measured by ELISA. In brief, the ELISA plate was coated with specific target peptide epitope, either naked or conjugated to a carrier other than the one against which the antibody response was generated, over which patient serum is added in a descending concentration. After washing, an appropriate secondary anti-human antibody (anti-IgM or anti-IgG types) is applied to detect and determine the concentration of specific human anti-nfP2X7 antibody present in the patient serum in the form of IgM or IgG.

[1] = following the primary inoculation (0.5 mg peptide)

Sequence: GHNYTTRNILPGLNITC
- specific anti-nfP2X7 IgM concentration in patient serum (ELISA) (following the boost (0.3 mg peptide)): returned to a baseline of zero
- specific anti-nfP2X7 IgG concentration in patient serum (ELISA) (following the boost, provided no nfP2X7 receptor sink is present on extant tumor): higher concentration than the original IgM
- specific anti-nfP2X7 IgG in patient serum (ELISA) [1]: no IgG is detectable
- specific anti-nfP2X7 IgM in patient serum (ELISA) [1]: a small amount of IgM is detected
- circulating anti-nfP2X7 antibody response in serum (ELISA) (patient with moderate tumor burden, Week 13, 9 weeks post boost): small level
- circulating antibody present in serum (ELISA) (patient with moderate tumor burden, intermediate measurements Weeks 5 to 12): little circulating antibody was present
- antibodies to the peptide detected in serum (ELISA) (patient with moderate tumor burden, pre-boost serum at Week 4, 4 weeks post initial immunisation): No antibodies were detected
- circulating antibody levels detected in serum (ELISA) (patient with very small residual tumor burden, Week 5, 1 week post boost): much higher than in the patient who had a moderate tumor mass
- specific endogenous anti-nfP2X7 antibody detected in the serum (patients without nfP2X7 receptor sink (original tumor cleared), after boost): ~5 mg/kg
